Measured values taken from patent US20220323380A1, “DRUG COMBINATION FOR USE IN THE TREATMENT OF INFLAMMATORY DISEASES” (ISANAS AG, priority 2019, published 2022).

Tests used:
[1] = humans, compared with MK-4 (Sato 2012); cited from earlier work
[2] = in vivo; cited from earlier work
[3] = tested on: patient suffering from MS; settings: daily 300 mg bupropion over four weeks, MRI after three months, MS patient with depression; cited from earlier work
MS patients = settings: cited from earlier work
PC12D cells = settings: cell cultures (Tsang 2002); cited from earlier work
EAE rat model = settings: cited from earlier work
MS-patients = assay: Treatment of MS patients with the triple combination (case reports, MS score); format: in vivo, human; settings: Example 2: one MS patient, own words
From the text: The scoring ranges from zero to ten points and is the sum of the physical score and cognitive score. Attributing half points was allowed to better cover the full scale and subtlety of MS symptoms.

CC(C)=CCC/C(C)=C/CC/C(C)=C/CC/C(C)=C/CC/C(C)=C/CC/C(C)=C/CC/C(C)=C/CC1=C(C)C(=O)c2ccccc2C1=O [MK-7]
bioavailability after oral intake [1]: much higher bioavailability after oral intake than MK-4

CC1=CC(=O)c2ccccc2C1=O [VK3, 2-methylnaphthalene-1,4-dione]
reason for discontinued sales as prescription drug [2]: adverse effects and liver toxicity

CC(NC(C)(C)C)C(=O)c1cccc(Cl)c1 (centres unmarked) [bupropion]
MRI analysis of lesions [3]: rather showed a reduction of the lesions than a progression

C=C1CC[C@H](O)C/C1=C/C=C1\CCC[C@]2(C)[C@@H]([C@H](C)CCCC(C)C)CC[C@@H]12 [vitamin D3, cholecalciferol]
correlation with treatment effect in MS (MS patients; meta-analysis (Steinwart 2018), weekly dosage of 20,000 IU D3): did not provide any relevant correlation with treatment effect

CC1=C(C/C=C(\C)CCC[C@H](C)CCC[C@H](C)CCCC(C)C)C(=O)c2ccccc2C1=O [vitamin K1, phylloquinone]
nerve growth factor-mediated neurite outgrowth (PC12D cells): promoting activity

Vitamin D
EDSS scores and annual relapse rate (ARR) (MS patients; meta-analysis Zheng 2018): no therapeutic effect
recurrence of relapse, worsening of disability (EDSS), MRI lesions (MS patients; review Jagannath 2018): no effect

menaquinone [VK2]
efficacy in EAE (EAE rat model; given after the onset of EAE): not effective
severity of EAE (EAE rat model; prophylactic intraperitoneal administration, 62.5 mg/kg/d): ameliorated the severity of EAE
nerve growth factor-mediated neurite outgrowth (PC12D cells): promoting activity

ocrelizumab: humanised monoclonal antibody that targets the CD20 marker on B lymphocytes
patient's comparison of ocrelizumab with the combination therapy (MS-patients): could not achieve what this combination therapy could
